Measurements from patent publication US7666901B2, “Analogs of 17-hydroxywortmannin as PI3K inhibitors” (Wyeth, priority 2004, dated 2010).
Converted amounts (≈) assume the structure as drawn.

Assays:
[1] = molecular target: T1, Human TOR (Homo sapiens, UniProt P42345); assay: Human TOR (mTOR) kinase assay, DELFIA format; type: biochemical; details: Table 2
T1 construct: FLAG
Outline: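 Purified FLAG-TOR (800 ng/mL) phosphorylates His6-S6K ([…]) with […] ATP in Hepes pH 7.4 buffer containing MnCl2, 2 h at room temperature. Phospho-Thr389 S6K detected by DELFIA using Europium-labelled anti-P(T389)-p70S6K antibody; enzyme inhibition calculated from signal.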

[2] = system: T2, PI3K; assay: Fluorescence polarization assay for PI3K; type: biochemical; details: Table 2
T2 construct: PI3K FP IC50
Outline: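 PI3K was preincubated with compound at 1% DMSO final, then reacted with PIP2/ATP substrate for 30-60 min. The reaction was stopped with a detector mix giving 10 nM red probe and 70 nM GST-GRP. Fluorescence polarization (mP, Tamra filters) was read 30-90 min later and IC50 determined.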

[3] = system: phosphor-AKT (S473) in Rat1 cells; assay: Rat1-IGF1 assay (IGF-1 induced phospho-AKT immunoblot); type: cell-based, rat; details: Table 2; for IC50: Rattus norvegicus
Outline: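 After 24 h serum starvation, Rat1 cells got vehicle or varying 17-HWT concentrations for 2 hours, then IGF-1 (100 ng/mL) for 30 minutes. Lysates immunoblotted for phospho-AKT (S473) and total AKT.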

[4] = system: LNCaP (human prostate carcinoma); assay: Cell proliferation (MTS) assay, LNCaP; type: cell-based; details: Table 2, three days treatment; for IC50: Homo sapiens, LNCaP, 72 h
Outline: (§1)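 Cells plated at about 3000 per well in RPMI-1640/10% FBS were dosed with compound one day later. Viability was read by MTS conversion (absorbance 490 nm, 1–2 h) three days after treatment began. Effect is expressed as percent of vehicle-treated growth on the same plate.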

[5] = system: MDA468 (human breast cancer cell); assay: Cell proliferation (MTS) assay, MDA468; type: cell-based; details: Table 2, three days treatment; for IC50: Homo sapiens, 72 h
Outline: as §1

[6] = system: MDA435 (human breast adenocarcinoma); assay: Cell proliferation (MTS) assay, MDA435; type: cell-based; details: Table 2, three days treatment; for IC50: Homo sapiens, MDA435, 72 h
Outline: as §1

[7] = system: DU145 (human prostate carcinoma/lymphocytic leukemia); assay: Cell proliferation (MTS) assay, DU145; type: cell-based; details: Table 2, three days treatment; for IC50: Homo sapiens, DU-145, 72 h
Outline: as §1

Row | SMILES | IC50 [1] [nM] | IC50 [2] [nM] | IC50 [3] [µg/mL] | IC50 [4] [µg/mL] | IC50 [5] [µg/mL] | IC50 [6] [µg/mL] | IC50 [7] [µg/mL] | Rat1-IGF1 IC50 [3] | LNCaP IC50 [4] [µg/mL] | MDA468 IC50 [5] [µg/mL] | MDA435 IC50 [6] [µg/mL] | DU145 IC50 [7] [µg/mL]
1 | CCN(CC)CCCN(C=C1C(=O)OC(COC)C2(C)C1=C(O)C(=O)C1=C2C(OC(C)=O)CC2(C)C(O)CCC12)CCS(=O)(=O)c1ccccc1 (centres unmarked) [Compound 28, Acetic acid 4-{[(2-benzenesulfonyl-ethyl)-(3-diethylamino-propyl)-amino]-methylene}-6,17-dihydroxy-1-methoxymethyl-10,13-dimethyl-3,7-dioxo-1,3,4,7,10,11,12,13,14,15,16,17-dodecahydro-2-oxa-cyclopenta[a]phenanthren-11-yl ester] | > 13700 | 131 | > 0.1 | 0.12 (≈ 0.165 µM) | 3 (≈ 4.12 µM) | 11 (≈ 15.1 µM) | 8.5 (≈ 11.7 µM) |  |  |  |  | 
2 | COCC1OC(=O)C(=CN(Cc2ccccc2)CC23CCCN(CCC2)C3)C2=C(O)C(=O)C3=C(C(OC(C)=O)CC4(C)C(O)CCC34)C21C (centres unmarked) [Compound 29, Acetic acid 4-{[(1-aza-bicyclo[3.3.1]non-5-ylmethyl)-benzyl-amino]-methylene}-6,17-dihydroxy-1-methoxymethyl-10,13-dimethyl-3,7-dioxo-1,3,4,7,10,11,12,13,14,15,16,17-dodecahydro-2-oxa-cyclopenta[a]phenanthren-11-yl ester] | > 14800 | 373 | > 0.1 | 1.8 (≈ 2.67 µM) | 15 (≈ 22.2 µM) | > 30 | 30 (≈ 44.5 µM) |  |  |  |  | 
3 | COCC1OC(=O)C(=CN(C)CCN(C)C)C2=C(O)C(=O)C3=C(C(OC(C)=O)CC4(C)C(O)CCC34)C21C (centres unmarked) [Compound 31, Acetic acid 4-{[(2-dimethylamino-ethyl)-methyl-amino]-methylene}-6,17-dihydroxy-1-methoxymethyl-10,13-dimethyl-3,7-dioxo-1,3,4,7,10,11,12,13,14,15,16,17-dodecahydro-2-oxa-cyclopenta[a]phenanthren-11-yl ester] | 1280 | 9 | 0.1 (≈ 0.188 µM) | 0.4 (≈ 0.751 µM) | 4 (≈ 7.51 µM) | 23 (≈ 43.2 µM) | 21 (≈ 39.4 µM) |  |  |  |  | 
4 | COCC1OC(=O)C(=CN(C)CC(=O)OC(C)(C)C)C2=C(O)C(=O)C3=C(C(OC(C)=O)CC4(C)C(O)CCC34)C21C (centres unmarked) [Compound 35, [(11-Acetoxy-6,17-dihydroxy-1-methoxymethyl-10,13-dimethyl-3,7-dioxo-1,7,10,11,12,13,14,15,16,17-decahydro-2-oxa-cyclopenta[a]phenanthren-4-ylidenemethyl)-methyl-amino]-acetic acid tert-butyl ester] | 13900 | 1580 | 0.1 (≈ 0.174 µM) | 0.1 (≈ 0.174 µM) | 1.4 (≈ 2.43 µM) | 5.5 (≈ 9.55 µM) | 3 (≈ 5.21 µM) |  |  |  |  | 
5 | COCC1OC(=O)C(=CN(C)CCCC(=O)O)C2=C(O)C(=O)C3=C(C(OC(C)=O)CC4(C)C(O)CCC34)C21C (centres unmarked) [Compound 37, 4-[(11-Acetoxy-6,17-dihydroxy-1-methoxymethyl-10,13-dimethyl-3,7-dioxo-1,7,10,11,12,13,14,15,16,17-decahydro-2-oxa-cyclopenta[a]phenanthren-4-ylidenemethyl)-methyl-amino]-butyric acid] | 12600 | 193 | 0.1 (≈ 0.183 µM) | 0.2 (≈ 0.365 µM) | 4 (≈ 7.3 µM) | 12 (≈ 21.9 µM) | 21 (≈ 38.3 µM) |  |  |  |  | 
6 | COCC1OC(=O)C(=CN2CCC2C(=O)O)C2=C(O)C(=O)C3=C(C(OC(C)=O)CC4(C)C(O)CCC34)C21C (centres unmarked) [Compound 38, 1-(11-Acetoxy-6,17-dihydroxy-1-methoxymethyl-10,13-dimethyl-3,7-dioxo-1,7,10,11,12,13,14,15,16,17-decahydro-2-oxa-cyclopenta[a]phenanthren-4-ylidenemethyl)-azetidine-2-carboxylic acid] | 9590 | 63 | 0.1 (≈ 0.188 µM) | 0.06 (≈ 0.113 µM) | 1.3 (≈ 2.45 µM) | 4 (≈ 7.53 µM) | 2.4 (≈ 4.52 µM) |  |  |  |  | 
7 | COCC1OC(=O)C(=CN2CCCC2C(=O)OC)C2=C(O)C(=O)C3=C(C(OC(C)=O)CC4(C)C(O)CCC34)C21C (centres unmarked) [Compound 39, 1-(11-Acetoxy-6,17-dihydroxy-1-methoxymethyl-10,13-dimethyl-3,7-dioxo-1,7,10,11,12,13,14,15,16,17-decahydro-2-oxa-cyclopenta[a]phenanthren-4-ylidenemethyl)-pyrrolidine-2-carboxylic acid methyl ester] | 12300 | 770 | 0.1 (≈ 0.179 µM) | 0.043 (≈ 0.0768 µM) | 1.2 (≈ 2.14 µM) | 4 (≈ 7.15 µM) | 2.4 (≈ 4.29 µM) |  |  |  |  | 
8 | COCC1OC(=O)C(=CN2CCCC2C(=O)OC)C2=C(O)C(=O)C3=C(C(OC(C)=O)CC4(C)C(O)CCC34)C21C (centres unmarked) [Compound 40, 1-(11-Acetoxy-6,17-dihydroxy-1-methoxymethyl-10,13-dimethyl-3,7-dioxo-1,7,10,11,12,13,14,15,16,17-decahydro-2-oxa-cyclopenta[a]phenanthren-4-ylidenemethyl)-pyrrolidine-2-carboxylic acid methyl ester] | > 17900 | 444 |  |  |  |  |  | >0.1(hint) μg/ml | 0.085 | 0.75 | 5.5 | 1.85

Now from value to compound, other results behind:

Row | IC50 [1] [nM] | IC50 [2] [nM] | IC50 [3] [µg/mL] | IC50 [4] [µg/mL] | IC50 [5] [µg/mL] | IC50 [6] [µg/mL] | IC50 [7] [µg/mL] | SMILES | Rat1-IGF1 IC50 [3] | LNCaP IC50 [4] [µg/mL] | MDA468 IC50 [5] [µg/mL] | MDA435 IC50 [6] [µg/mL] | DU145 IC50 [7] [µg/mL]
9 | 2290 | 24 | 0.1 (≈ 0.17 µM) | 0.35 (≈ 0.595 µM) | 5 (≈ 8.49 µM) | 30 (≈ 51 µM) | 23 (≈ 39.1 µM) | COCC1OC(=O)C(=CN(C)CCCN2CCOCC2)C2=C(O)C(=O)C3=C(C(OC(C)=O)CC4(C)C(O)CCC34)C21C (centres unmarked) [Compound 27, Acetic acid 6,17-dihydroxy-1-methoxymethyl-10,13-dimethyl-4-{[methyl-(3-morpholin-4-yl-propyl)-amino]-methylene}-3,7-dioxo-1,3,4,7,10,11,12,13,14,15,16,17-dodecahydro-2-oxa-cyclopenta[a]phenanthren-11-yl ester] |  |  |  |  | 
10 | 1200 | 46 | 0.02 (≈ 0.0311 µM) | 0.41 (≈ 0.637 µM) | 4 (≈ 6.21 µM) | 21 (≈ 32.6 µM) | 21 (≈ 32.6 µM) | COCC1OC(=O)C(=CN2CCN(CCCN3CCOCC3)CC2)C2=C(O)C(=O)C3=C(C(OC(C)=O)CC4(C)C(O)CCC34)C21C (centres unmarked) [Compound 30, Acetic acid 6,17-dihydroxy-1-methoxymethyl-10,13-dimethyl-4-[4-(3-morpholin-4-yl-propyl)-piperazin-1-ylmethylene]-3,7-dioxo-1,3,4,7,10,11,12,13,14,15,16,17-dodecahydro-2-oxa-cyclopenta[a]phenanthren-11-yl ester] |  |  |  |  | 
11 | 249 | 39 | 0.1 (≈ 0.166 µM) | 0.5 (≈ 0.831 µM) | 4.1 (≈ 6.81 µM) | 22 (≈ 36.6 µM) | 20 (≈ 33.2 µM) | COCC1OC(=O)C(=CN2CCN(CCCN(C)C)CC2)C2=C(O)C(=O)C3=C(C(OC(C)=O)CC4(C)C(O)CCC34)C21C (centres unmarked) [Compound 32, Acetic acid 4-[4-(3-dimethylamino-propyl)-piperazin-1-ylmethylene]-6,17-dihydroxy-1-methoxymethyl-10,13-dimethyl-3,7-dioxo-1,3,4,7,10,11,12,13,14,15,16,17-dodecahydro-2-oxa-cyclopenta[a]phenanthren-11-yl ester] |  |  |  |  | 
12 | 619 | 78 | 0.1 (≈ 0.159 µM) | 0.5 (≈ 0.794 µM) | 4.3 (≈ 6.83 µM) | 18 (≈ 28.6 µM) | 20 (≈ 31.8 µM) | COCC1OC(=O)C(=CN2CCN(CCN3CCOCC3)CC2)C2=C(O)C(=O)C3=C(C(OC(C)=O)CC4(C)C(O)CCC34)C21C (centres unmarked) [Compound 33, Acetic acid 6,17-dihydroxy-1-methoxymethyl-10,13-dimethyl-4-[4-(2-morpholin-4-yl-ethyl)-piperazin-1-ylmethylene]-3,7-dioxo-1,3,4,7,10,11,12,13,14,15,16,17-dodecahydro-2-oxa-cyclopenta[a]phenanthren-11-yl ester] |  |  |  |  | 
13 | 961 | 91 | 0.1 (≈ 0.163 µM) | 0.48 (≈ 0.782 µM) | 6 (≈ 9.78 µM) | 22 (≈ 35.8 µM) | 25 (≈ 40.7 µM) | COCC1OC(=O)C(=CN2CCN(C3CCN(C)CC3)CC2)C2=C(O)C(=O)C3=C(C(OC(C)=O)CC4(C)C(O)CCC34)C21C (centres unmarked) [Compound 34, Acetic acid 6,17-dihydroxy-1-methoxymethyl-10,13-dimethyl-4-[4-(1-methyl-piperidin-4-yl)-piperazin-1-ylmethylene]-3,7-dioxo-1,3,4,7,10,11,12,13,14,15,16,17-dodecahydro-2-oxa-cyclopenta[a]phenanthren-11-yl ester] |  |  |  |  | 
14 | 2990 | 199 | 0.1 (≈ 0.187 µM) | 0.09 (≈ 0.168 µM) | 2.3 (≈ 4.29 µM) | 5 (≈ 9.34 µM) | 12 (≈ 22.4 µM) | COCC1OC(=O)C(=CN(C)CC(O)CO)C2=C(O)C(=O)C3=C(C(OC(C)=O)CC4(C)C(O)CCC34)C21C (centres unmarked) [Compound 36, Acetic acid 4-{[(2,3-dihydroxy-propyl)-methyl-amino]-methylene}-6,17-dihydroxy-1-methoxymethyl-10,13-dimethyl-3,7-dioxo-1,3,4,7,10,11,12,13,14,15,16,17-dodecahydro-2-oxa-cyclopenta[a]phenanthren-11-yl ester] |  |  |  |  | 
